Experimental data taken from the NIST ThermoML archive (doi:10.1016/j.fluid.2012.11.026).
Numbers after ± are expanded uncertainties.

Conditions: Liquid, Closed cell (Static) method

Q: What does the source list for `CCOC(=O)OCC` [diethyl carbonate]?
A: vapor or sublimation pressure (353.15 K): 20.74 ± 2.2 kPa; vapor or sublimation pressure (363.15 K): 30.23 ± 3.1 kPa

Q: Which results are given for `CCO` [ethanol]?
A: vapor or sublimation pressure (353.15 K): 108.14 ± 11 kPa; vapor or sublimation pressure (363.15 K): 156.04 ± 16 kPa

Q: With `O` [water] as the molecule, how does the “vapor or sublimation pressure” value (353.15 K) read?
A: 47.33 ± 4.8 kPa

Q: And the “vapor or sublimation pressure” value (363.15 K)?
A: 70.07 ± 7 kPa
